Values of other authors in patent US20260284040A1, “COMBINATION OF A PARP1 INHIBITOR AND A SELECTIVE ESTROGEN DEGRADER FOR TREATING CANCER” (ASTRAZENECA AB, priority 2023, published 2026).

Experiments:
[1] = in vivo
[2] = test system: human bone marrow progenitor cells; settings: in vitro
[3] = test system: ER+ cell lines and PDX models; settings: wide range of ER+ cell lines and PDX models, including ESR1m models

| Effects on human bone marrow progenitor cells [2] | SMILES | Oral bioavailability [1] | Antitumour activities [3] |
| --- | --- | --- | --- |
|  | C[C@]12CC[C@@H]3c4ccc(O)cc4C[C@@H](CCCCCCCCC[S+]([O-])CCCC(F)(F)C(F)(F)F)[C@H]3[C@@H]1CC[C@@H]2O (stereo partly shown) [fulvestrant] | not orally bioavailable |  |
| reduced effects | CCc1cc2ncc(CN3CCN(c4ccc(C(=O)NC)nc4)CC3)cc2[nH]c1=O [AZD5305, 5-{4-[(7-ethyl-6-oxo-5,6-dihydro-1,5-naphthyridin-3-yl)methyl]piperazin-1-yl}-N-methylpyridine-2-carboxamide] |  |  |
|  | C[C@@H]1Cc2c(ccc3[nH]ncc23)[C@@H](c2ccc(NC3CN(CCCF)C3)cn2)N1CC(F)(F)F [Camizestrant, N-[1-(3-fluoropropyl)azetidin-3-yl]-6-[(6S,8R)-8-methyl-7-(2,2,2-trifluoroethyl)-6,7,8,9-tetrahydro-3H-pyrazolo[4,3-]isoquinolin-6-yl]-pyridin-3-amine] | orally bioavailable | demonstrated antitumour activities |
